Laboratory results: the NIST ThermoML archive (doi:10.1021/je030136n)

Assay: xn = mol fraction of the nth substance listed
Details: Liquid, Pulse-echo method

CCCCCCC [heptane] + CCCO
Details	speed of sound [m/s]
298.17 K, 30400 kPa, x2 = 0.3008	1319.3
298.17 K, 45590 kPa, x2 = 0.3008	1394.1
298.17 K, 60790 kPa, x2 = 0.3008	1461.5
298.17 K, 60790 kPa, x2 = 0.7986	1471.8
298.17 K, 75990 kPa, x2 = 0.1008	1526.8
298.17 K, 75990 kPa, x2 = 0.3008	1523.2
298.17 K, 75990 kPa, x2 = 0.7986	1529.5
298.17 K, 91190 kPa, x2 = 0.1008	1584.5
298.17 K, 91190 kPa, x2 = 0.7016	1580.7
298.17 K, 111450 kPa, x2 = 0.7016	1647.6
298.18 K, 100 kPa, x2 = 0.3008	1128.6
298.18 K, 100 kPa, x2 = 0.6027	1144.3
298.18 K, 45590 kPa, x2 = 0	1400.1
298.18 K, 60790 kPa, x2 = 0.1008	1464.2
298.18 K, 60790 kPa, x2 = 0.7016	1467.2
298.18 K, 75990 kPa, x2 = 0.7016	1526
298.18 K, 101320 kPa, x2 = 0.7016	1614.9
298.18 K, 111450 kPa, x2 = 0.1008	1655.1
298.18 K, 121580 kPa, x2 = 0.7016	1678.9
298.19 K, 30400 kPa, x2 = 0.6027	1326.4
298.19 K, 45590 kPa, x2 = 0.6027	1398.6
298.19 K, 45590 kPa, x2 = 0.7016	1403
298.19 K, 60790 kPa, x2 = 0	1468.7
298.19 K, 91190 kPa, x2 = 0.3008	1580.1
298.19 K, 91190 kPa, x2 = 0.6027	1579
298.2 K, 100 kPa, x2 = 0.7016	1154
298.2 K, 30400 kPa, x2 = 0.7016	1332.1
298.2 K, 121580 kPa, x2 = 0.7986	1679.9
298.22 K, 75990 kPa, x2 = 0.6027	1523.5
298.23 K, 60790 kPa, x2 = 0.6027	1463.6
298.25 K, 101320 kPa, x2 = 0.7986	1616.7
298.26 K, 91190 kPa, x2 = 0.7986	1583
303.06 K, 100 kPa, x2 = 0	1108.9
303.07 K, 45590 kPa, x2 = 0	1384.4
303.08 K, 60790 kPa, x2 = 0.6027	1449.5
303.08 K, 101320 kPa, x2 = 0.6027	1601.2
303.09 K, 101320 kPa, x2 = 0.7986	1604.9
303.1 K, 75990 kPa, x2 = 0.7986	1516.7
303.1 K, 91190 kPa, x2 = 0.7986	1570.9
303.1 K, 101320 kPa, x2 = 0	1612.6
303.1 K, 111450 kPa, x2 = 0.6027	1634.7
303.1 K, 121580 kPa, x2 = 0	1681.2
303.11 K, 111450 kPa, x2 = 0.4992	1635.3
303.11 K, 121580 kPa, x2 = 0.4992	1667.7
303.11 K, 121580 kPa, x2 = 0.7986	1668.6
303.12 K, 100 kPa, x2 = 0.7986	1147.6
303.12 K, 30400 kPa, x2 = 0.7986	1324.1
303.12 K, 45590 kPa, x2 = 0.7016	1388.2
303.12 K, 45590 kPa, x2 = 0.7986	1394.5
303.12 K, 101320 kPa, x2 = 0.4992	1601.3
303.12 K, 111450 kPa, x2 = 0.7986	1637.5
303.12 K, 121580 kPa, x2 = 0.7016	1667.3
303.13 K, 30400 kPa, x2 = 0	1307
303.13 K, 30400 kPa, x2 = 0.7016	1316.2
303.13 K, 60790 kPa, x2 = 0.7986	1458.1
303.13 K, 75990 kPa, x2 = 0.7016	1512.7
303.13 K, 91190 kPa, x2 = 0.4992	1565.8
303.13 K, 91190 kPa, x2 = 0.7016	1567.8
303.13 K, 101320 kPa, x2 = 0.7016	1602.5
303.13 K, 111450 kPa, x2 = 0.7016	1635.6
303.14 K, 100 kPa, x2 = 0.7016	1134.5
303.14 K, 30400 kPa, x2 = 0.4992	1306.5
303.14 K, 30400 kPa, x2 = 0.6027	1310
303.14 K, 60790 kPa, x2 = 0.7016	1453.1
303.14 K, 75990 kPa, x2 = 0.4992	1509.2
303.14 K, 91190 kPa, x2 = 0.6027	1565.9
303.15 K, 100 kPa, x2 = 0.6027	1124
303.15 K, 45590 kPa, x2 = 0.6027	1383.2
303.15 K, 60790 kPa, x2 = 0.4992	1448
303.15 K, 75990 kPa, x2 = 0.6027	1509.9
303.15 K, 111450 kPa, x2 = 0	1647.6
303.16 K, 100 kPa, x2 = 0.4992	1116
303.16 K, 15200 kPa, x2 = 0.1008	1213.6
303.16 K, 45590 kPa, x2 = 0.4992	1380.9
303.16 K, 121580 kPa, x2 = 0.3008	1669.9
303.17 K, 15200 kPa, x2 = 0	1218.6
303.17 K, 75990 kPa, x2 = 0	1517.2
303.17 K, 101320 kPa, x2 = 0.1008	1607.1
303.17 K, 101320 kPa, x2 = 0.3008	1602.4
303.18 K, 60790 kPa, x2 = 0	1453.7
303.18 K, 91190 kPa, x2 = 0	1575.7
303.18 K, 111450 kPa, x2 = 0.1008	1642
303.18 K, 121580 kPa, x2 = 0.6027	1666.6
303.19 K, 121580 kPa, x2 = 0.1008	1675.4
303.2 K, 100 kPa, x2 = 0.3008	1107.1
303.2 K, 30400 kPa, x2 = 0.3008	1301.8
303.2 K, 60790 kPa, x2 = 0.1008	1448.8
303.21 K, 30400 kPa, x2 = 0.1008	1301.9
303.21 K, 45590 kPa, x2 = 0.1008	1379.3
303.21 K, 60790 kPa, x2 = 0.3008	1446
303.21 K, 75990 kPa, x2 = 0.1008	1512.1
303.21 K, 75990 kPa, x2 = 0.3008	1508.5
303.21 K, 91190 kPa, x2 = 0.1008	1570.5
303.21 K, 91190 kPa, x2 = 0.3008	1566.1
303.22 K, 100 kPa, x2 = 0.1008	1103.8
303.23 K, 45590 kPa, x2 = 0.3008	1377.7
303.25 K, 111450 kPa, x2 = 0.3008	1636.9
